One molecule from patent publication US9649289B1, “Method and composition for treating dysbiosis and related disease states” (BioAvivus, LLT, priority 2016, dated 2017) can be followed below.

The nature of the data set: Median particle size of salsalate before and after Microfluidics homogenizer passes. It is filed as physicochemical. From the text: Using a Microfluidics® Homogenizer 40, passes with the device take the median particle size of salsalate FIG. 1 from about 40 microns down to about 2.4 microns, as shown in FIG. 2. The resulting salsalate is formulated into unit dose oral dosages, as noted above.

As for `O=C(Oc1ccccc1C(=O)O)c1ccccc1O` [salsalate], the median particle size entry by setting is: (after 40 passes with Microfluidics Homogenizer (micronized salsalate of the invention)) “about 2.4 microns”; (after 40 passes with Microfluidics Homogenizer (micronized salsalate of the invention), listed as Salsalate) 2.4 microns; (starting (regular) salsalate, before homogenization) “about 40 microns”.
